Starred links: 1 amine or outer side, 2 acyl side, 3 side chain; linkers in the order of their positions; H or OH if unused. Non-standard residues stand in square brackets, D forms with d. Residues, ends and D or L forms follow the SMILES beside them. *: point of attachment. JQ1acid = Cc1sc2c(c1C)C(c1ccc(Cl)cc1)=N[C@@H](CC(=O)*)c1nnc(C)n1-2; X1 = CC(C)(C)[C@@H](C(=O)[*:2])n1cc(COCCN[*:1])nn1; dBip = N[C@H](Cc1ccc(-c2ccccc2)cc1)C(=O)O; Hyp = O=C(O)[C@@H]1C[C@@H](O)CN1; dDap = NC[C@@H](N)C(=O)O
Each compound was assayed against T1, BRD4 (Homo sapiens, UniProt O60885) (assay: BRD4 degradation assay in EOL1 cells (immunofluorescence imaging)). Conditions: EoL-1 eosinophilic leukemia cells, 4 hours treatment, nuclear BRD4 immunofluorescence.
T1 construct: Mean 488 intensity of BRD4 quantitated in nuclear region; endogenous in cells; host or cells: EoL-1 eosinophilic leukemia cells
Assay type: cell-based
How it was run: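 EoL-1 cells treated 4 h at 37 °C with 20-point 1/3 serial dilutions (0.2% DMSO) in RPMI/10% FBS, then fixed and immunostained for BRD4. Mean nuclear BRD4 intensity measured by high-content imaging, with Hoechst nuclear masking. DMSO and no-primary-antibody controls define 0 and 100%; DC50 and maximal effect from dose-response fit.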

SMILES | DC50 [nM]
Cc1sc2c(c1C)C(c1ccc(Cl)cc1)=N[C@@H](CC(=O)NC[C@H]1NC(=O)[C@@H](C(C)C)NC(=O)[C@@H](Cc3ccc(-c4ccccc4)cc3)NC(=O)[C@@H]3C[C@@H](O)CN3C(=O)[C@H](C(C)(C)C)n3cc(nn3)COCCNC1=O)c1nnc(C)n1-2 [Compound 202] (cyclo([Hyp][dBip][dV][dDap](JQ1acid)[X1])) | < 50
Cc1sc2c(c1C)C(c1ccc(Cl)cc1)=N[C@@H](CC(=O)N(C)C[C@H]1NC(=O)CNC(=O)[C@@H](Cc3ccc(-c4ccccc4)cc3)NC(=O)[C@@H]3C[C@@H](O)CN3C(=O)[C@H](C(C)(C)C)n3cc(nn3)COCCNC1=O)c1nnc(C)n1-2 [Compound 203] | < 1000
Cc1sc2c(c1C)C(c1ccc(Cl)cc1)=N[C@@H](CC(=O)N(C)C[C@H]1NC(=O)CNC(=O)[C@@H](Cc3ccc(-c4ccccc4)cc3)NC(=O)[C@@H]3C[C@@H](O)CN3C(=O)[C@H](C(C)(C)C)n3cc(nn3)COCCN(C)C1=O)c1nnc(C)n1-2 [Compound 204] | > 20000
Cc1sc2c(c1C)C(c1ccc(Cl)cc1)=N[C@@H](CC(=O)NC[C@H]1NC(=O)CNC(=O)[C@@H](Cc3ccc(-c4ccccc4)cc3)NC(=O)[C@@H]3C[C@@H](O)CN3C(=O)[C@H](C(C)(C)C)n3cc(nn3)COCCN(C)C1=O)c1nnc(C)n1-2 [Compound 205] | < 50
Cc1sc2c(c1C)C(c1ccc(Cl)cc1)=N[C@@H](CC(=O)NC[C@H]1CCCNC(=O)[C@@H](Cc3ccc(-c4ccccc4)cc3)NC(=O)[C@@H]3C[C@@H](O)CN3C(=O)[C@H](C(C)(C)C)n3cc(nn3)COCCNC1=O)c1nnc(C)n1-2 [Compound 206] | < 50
Cc1sc2c(c1C)C(c1ccc(Cl)cc1)=N[C@@H](CC(=O)NC[C@H]1CCCNC(=O)[C@@H](Cc3ccc(-c4ccccc4)cc3)NC(=O)[C@@H]3C[C@@H](O)CN3C(=O)[C@H](C(C)(C)C)n3cc(nn3)C3(CC3)CNC1=O)c1nnc(C)n1-2 [Compound 207] | < 50
Cc1sc2c(c1C)C(c1ccc(Cl)cc1)=N[C@@H](CC(=O)NC[C@H]1CCCNC(=O)[C@@H](Cc3ccc(-c4ccccc4)cc3)NC(=O)[C@@H]3C[C@@H](O)CN3C(=O)[C@H](C(C)(C)C)n3cc(nn3)C3(CC3)CNC(=O)CNC1=O)c1nnc(C)n1-2 [Compound 208] | < 1000

Reference: patent US12187816B2, “Macrocyclic compounds and methods of use thereof” (Genentech, Inc., priority 2020, dated 2025)
